The nature of this data set: recombinant barcode read abundance after kanamycin selection (control-corrected) (log10(CPM+1)); higher = more efficient recombination; sequences stand for … in AGTGCAGAGAAAATCGGCCAGTTTTCTCTGCCTGCAGTCCGCATGCCGT…AGATTTATGCAGCGGACTGCCTTTCTCCCAAAGTGATAAACCGGACAGTATCATGGACCGGTTTTCCCGGTAATCCGTATTTGCAAGGTTGGTTTCACT; site = the 11-nt target. Summed up:
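For this pooled screen, each oligo contained a promoter, a target, a barcode and the J23119-driven first 104 bases of the bridge RNA. Gibson cloning placed it into a vector supplying the remaining 73 bp and a T7-inducible recombinase, and the pool was co-electroporated into E. coli with a donor plasmid. Recombination efficiency is derived from barcode counts per million at recombinant junctions after averaging and control correction, and is expressed on a log scale as log10(CPM+1), with selection on chloramphenicol/ampicillin/kanamycin plus 0.1 mM IPTG against a chloramphenicol/ampicillin LB agar control.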
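Also: IS621 recombinase and bridge RNA in Escherichia coli cells.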

With “CCAAAGGCTTGGGTTCTAACCTGTTGCCT (site CCAAAGGCTAG)”, the “recombinant barcode read abundance (log10)” value was 0.656.

Turning to “CCAAAGGCTTGGGTTCTAACCTGTTGCCT (site CCTAATGCTAG)”, the “recombinant barcode read abundance (log10)” value is 0.412.

For the sequence “CCAACACCTTGGGTTCTAACCTGTTGCCT (site CCAACACCTAG)”, the “recombinant barcode read abundance (log10)” value was 0.465.

Regarding “CCAACACCTTGGGTTCTAACCTGTTGCCT (site CCAAGTCCTAG)”, the “recombinant barcode read abundance (log10)” value is 0.0965.

As for “CCAAGCTCTTGGGTTCTAACCTGTTGCCT (site CCAAGCACTAG)”, the “recombinant barcode read abundance (log10)” value amounted to 0.0905.

In the case of “CCAAGCTCTTGGGTTCTAACCTGTTGCCT (site CCAAGCCCTAG)”, the “recombinant barcode read abundance (log10)” value was 0.177.

Consider “CCAAGCTCTTGGGTTCTAACCTGTTGCCT (site CCAAGCGCTAG)”, for which the “recombinant barcode read abundance (log10)” value turned out to be 0.214.

As for “CCAAGCTCTTGGGTTCTAACCTGTTGCCT (site CCAAGCTCTAG)”, the “recombinant barcode read abundance (log10)” value is 1.32.

On to “CCAAGGCCTTGGGTTCTAACCTGTTGCCT (site ACAAGGCCTAG)”, for which the “recombinant barcode read abundance (log10)” value was 0.161.

Consider “CCAAGGCCTTGGGTTCTAACCTGTTGCCT (site CCAAGGCCTAG)”, for which the “recombinant barcode read abundance (log10)” value was found to be 0.0291.

As for “CCAAGGCCTTGGGTTCTAACCTGTTGCCT (site GCAAGGCCTAG)”, the “recombinant barcode read abundance (log10)” value amounted to 0.28.

In the case of “CCAAGGCCTTGGGTTCTAACCTGTTGCCT (site TCAAGGCCTAG)”, the “recombinant barcode read abundance (log10)” value amounted to 0.0686.

Turning to “CCAAGTCCTTGGGTTCTAACCTGTTGCCT (site CCAACACCTAG)”, the “recombinant barcode read abundance (log10)” value was determined as 0.0147.

With “CCAAGTCCTTGGGTTCTAACCTGTTGCCT (site CCAAGTCCTAG)”, the “recombinant barcode read abundance (log10)” value was 0.892.

As for “CCAATCTCTTGGGTTCTAACCTGTTGCCT (site CCAATCTCTAG)”, the “recombinant barcode read abundance (log10)” value stood at 0.276.

“CCAATCTCTTGGGTTCTAACCTGTTGCCT (site CGTATCTCTAG)”: the “recombinant barcode read abundance (log10)” value was determined as 0.0477.

Turning to “CCACCTTCTTGGGTTCTAACCTGTTGCCT (site AGTTGGCCTTC)”, the “recombinant barcode read abundance (log10)” value was determined as 0.161.

In the case of “CCACCTTCTTGGGTTCTAACCTGTTGCCT (site CCACCTTCTAG)”, the “recombinant barcode read abundance (log10)” value came to 0.0666.

Take “CCACGAACTTGGGTTCTAACCTGTTGCTT (site CCAAGTACTAA)”: the “recombinant barcode read abundance (log10)” value was determined as 0.

Take “CCACGAACTTGGGTTCTAACCTGTTGCTT (site CCACGAACTAA)”: the “recombinant barcode read abundance (log10)” value worked out at 0.0915.

For the sequence “CCACGGACTTGGGTTCTAACCTGTTGCCT (site CCAAGGACTAG)”, the “recombinant barcode read abundance (log10)” value amounted to 0.143.

In the case of “CCACGGACTTGGGTTCTAACCTGTTGCCT (site CCACGGACTAG)”, the “recombinant barcode read abundance (log10)” value came out at 0.651.

“CCACGGACTTGGGTTCTAACCTGTTGCCT (site CCAGGGACTAG)”: the “recombinant barcode read abundance (log10)” value stood at 0.129.

Take “CCACGGACTTGGGTTCTAACCTGTTGCCT (site CCATGGACTAG)”: the “recombinant barcode read abundance (log10)” value was determined as 0.0265.

With “CCATACTCTTGGGTTCTAACCTGTTGCTT (site CCATACTCTAA)”, the “recombinant barcode read abundance (log10)” value is 1.17.

Regarding “CCATACTCTTGGGTTCTAACCTGTTGCTT (site CCATGGTCTAA)”, the “recombinant barcode read abundance (log10)” value is 0.

As to “CCATCCACTTGGGTTCTAACCTGTTGCCT (site CCATCCACTAG)”, the “recombinant barcode read abundance (log10)” value turned out to be 0.318.

Turning to “CCATCCACTTGGGTTCTAACCTGTTGCCT (site TCATCCGCTAG)”, the “recombinant barcode read abundance (log10)” value is 0.0523.

For the sequence “CCATGAACTTGGGTTCTAACCTGTTGCCA (site CCATCAACTAG)”, the “recombinant barcode read abundance (log10)” value came out at 0.131.

In the case of “CCATGAACTTGGGTTCTAACCTGTTGCCA (site CCATGAACTTG)”, the “recombinant barcode read abundance (log10)” value amounted to 0.0609.

For “CCGATCCCTTGGGTTCTAACCTGTTGCCT (site CAGATCCCTAG)”, the “recombinant barcode read abundance (log10)” value turned out to be 0.348.

As for “CCGATCCCTTGGGTTCTAACCTGTTGCCT (site CCGATCCCTAG)”, the “recombinant barcode read abundance (log10)” value came to 1.4.

Take “CCGATCCCTTGGGTTCTAACCTGTTGCCT (site CGGATCCCTAG)”: the “recombinant barcode read abundance (log10)” value was 0.213.

“CCGATCCCTTGGGTTCTAACCTGTTGCCT (site CTGATCCCTAG)”: the “recombinant barcode read abundance (log10)” value came out at 0.107.

As for “CCGCACACTTGGGTTCTAACCTGTTGCCT (site ACGCACACTAG)”, the “recombinant barcode read abundance (log10)” value stood at 0.191.

For “CCGCACACTTGGGTTCTAACCTGTTGCCT (site CCGCACACTAG)”, the “recombinant barcode read abundance (log10)” value worked out at 1.8.

“CCGCACACTTGGGTTCTAACCTGTTGCCT (site GCGCACACTAG)”: the “recombinant barcode read abundance (log10)” value came to 0.213.

“CCGCACACTTGGGTTCTAACCTGTTGCCT (site TCGCACACTAG)”: the “recombinant barcode read abundance (log10)” value was 0.305.

For “CCGCGAGCTTGGGTTCTAACCTGTTGCCG (site CCGCGAGCTCG)”, the “recombinant barcode read abundance (log10)” value worked out at 0.599.

On to “CCGCGAGCTTGGGTTCTAACCTGTTGCCG (site GATGTGCCTAC)”, for which the “recombinant barcode read abundance (log10)” value was found to be 0.137.

In the case of “CCGCTAGCTTGGGTTCTAACCTGTTGCCT (site ACGCTAGCTAG)”, the “recombinant barcode read abundance (log10)” value stood at 0.0362.

For the sequence “CCGCTAGCTTGGGTTCTAACCTGTTGCCT (site CCGCTAGCTAG)”, the “recombinant barcode read abundance (log10)” value stood at 0.183.

“CCGCTAGCTTGGGTTCTAACCTGTTGCCT (site GCGCTAGCTAG)”: the “recombinant barcode read abundance (log10)” value amounted to 0.0389.

For the sequence “CCGCTAGCTTGGGTTCTAACCTGTTGCCT (site TCGCTAGCTAG)”, the “recombinant barcode read abundance (log10)” value is 0.046.

As to “CCGCTTACTTGGGTTCTAACCTGTTGCCT (site CCGCTCGCTAG)”, the “recombinant barcode read abundance (log10)” value turned out to be 0.0115.

In the case of “CCGCTTACTTGGGTTCTAACCTGTTGCCT (site CCGCTTACTAG)”, the “recombinant barcode read abundance (log10)” value is 0.0232.

Consider “CCGGACCCTTGGGTTCTAACCTGTTGCCT (site CCGGACCCTAG)”, for which the “recombinant barcode read abundance (log10)” value came out at 1.88.

Regarding “CCGGACCCTTGGGTTCTAACCTGTTGCCT (site GCGGACGCTAG)”, the “recombinant barcode read abundance (log10)” value worked out at 0.232.

Consider “CCGGAGCCTTGGGTTCTAACCTGTTGCCT (site CCGAAGCCTAG)”, for which the “recombinant barcode read abundance (log10)” value worked out at 1.42.

Turning to “CCGGAGCCTTGGGTTCTAACCTGTTGCCT (site CCGCAGCCTAG)”, the “recombinant barcode read abundance (log10)” value turned out to be 0.271.

Consider “CCGGAGCCTTGGGTTCTAACCTGTTGCCT (site CCGGAGCCTAG)”, for which the “recombinant barcode read abundance (log10)” value came to 2.41.

As for “CCGGAGCCTTGGGTTCTAACCTGTTGCCT (site CCGTAGCCTAG)”, the “recombinant barcode read abundance (log10)” value was 0.413.

On to “CCGGGGTCTTGGGTTCTAACCTGTTGCCT (site ACGGGGTCTAG)”, for which the “recombinant barcode read abundance (log10)” value amounted to 0.789.

As to “CCGGGGTCTTGGGTTCTAACCTGTTGCCT (site CCGGGGTCTAG)”, the “recombinant barcode read abundance (log10)” value stood at 1.76.

With “CCGGGGTCTTGGGTTCTAACCTGTTGCCT (site GCGGGGTCTAG)”, the “recombinant barcode read abundance (log10)” value is 0.0665.

For “CCGGGGTCTTGGGTTCTAACCTGTTGCCT (site TCGGGGTCTAG)”, the “recombinant barcode read abundance (log10)” value was 0.0922.

With “CCGGGTTCTTGGGTTCTAACCTGTTGCCT (site CAGGGTTCTAG)”, the “recombinant barcode read abundance (log10)” value was 0.145.

As for “CCGGGTTCTTGGGTTCTAACCTGTTGCCT (site CCGGGTTCTAG)”, the “recombinant barcode read abundance (log10)” value is 1.79.

In the case of “CCGGGTTCTTGGGTTCTAACCTGTTGCCT (site CGGGGTTCTAG)”, the “recombinant barcode read abundance (log10)” value amounted to 0.16.

These data come from the supplement of paper PMC11208160.
